Measurements: ChEMBL document CHEMBL1201862, “PubChem BioAssay data set” (2004)
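In this assay, cells in 96-well plates receive the compound at five concentrations for 48 hours. Endpoints are linearly interpolated between the surrounding concentrations. The concentration for 50% growth inhibition is given as GI50.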 Calls of active or inactive are those of the source. Rule as the data show it: active = GI50 up to about 1.1 µM and inactive = higher.

Assays:
Assay in all cases: NCI tumour cell line growth inhibition, 48 h
SNB-75 = tested on: SNB-75
SK-MEL-2 = tested on: SK-MEL-2
OVCAR-8 = tested on: OVCAR-8
KM12 = tested on: KM12
SK-MEL-28 = tested on: SK-MEL-28
COLO 205 = tested on: COLO 205
OVCAR-5 = tested on: OVCAR-5
HT-29 = tested on: HT-29
HOP-92 = tested on: HOP-92
SF-539 = tested on: SF-539
NCI-H522 = tested on: NCI-H522
HCT-15 = tested on: HCT-15
SN12C = tested on: SN12C
MOLT-4 = tested on: MOLT-4
K562 = tested on: K562
786-0 = tested on: 786-0
DLD-1 = tested on: DLD-1
DMS-114 = tested on: DMS-114
IGROV-1 = tested on: IGROV-1
SK-MEL-5 = tested on: SK-MEL-5
TK-10 = tested on: TK-10
LOX IMVI = tested on: LOX IMVI
U-251 = tested on: U-251
HOP-18 = tested on: HOP-18
A549 = tested on: A549
SR = tested on: SR
SF-295 = tested on: SF-295
HL-60 = tested on: HL-60
SW-620 = tested on: SW-620
UO-31 = tested on: UO-31
RPMI-8226 = tested on: RPMI-8226
Malme-3M = tested on: Malme-3M
SNB-78 = tested on: SNB-78
DMS-273 = tested on: DMS-273
M14 = tested on: M14
UACC-257 = tested on: UACC-257
M19-MEL = tested on: M19-MEL
SF-268 = tested on: SF-268
LXFL 529 = tested on: LXFL 529
CAKI-1 = tested on: CAKI-1
SK-OV-3 = tested on: SK-OV-3
ACHN = tested on: ACHN
RXF 393 = tested on: RXF 393
OVCAR-4 = tested on: OVCAR-4
NCI-H226 = tested on: NCI-H226
UACC-62 = tested on: UACC-62
HCT-116 = tested on: HCT-116
CCRF-CEM = tested on: CCRF-CEM
HOP-62 = tested on: HOP-62
NCI-H23 = tested on: NCI-H23
NCI-H460 = tested on: NCI-H460
OVCAR-3 = tested on: OVCAR-3
MCF7 = tested on: MCF7
MDA-N = tested on: MDA-N
NCI/ADR-RES = tested on: NCI/ADR-RES
MDA-MB-231 = tested on: MDA-MB-231
T47D = tested on: T47D
HCC 2998 = tested on: HCC 2998
BT-549 = tested on: BT-549
MDA-MB-435 = tested on: MDA-MB-435
PC-3 = tested on: PC-3
DU-145 = tested on: DU-145
A498 = tested on: A498
EKVX = tested on: EKVX
SNB-19 = tested on: SNB-19
Hs-578T = tested on: Hs-578T

With `N#CC(NNC(=O)Cc1ccccc1)c1cccc(O)c1` (stereo not given) the GI50 (SNB-75) was > 100 µM (inactive), the GI50 (SK-MEL-2) was > 100 µM (inactive) and the GI50 (OVCAR-8) was > 100 µM (inactive). The GI50 (KM12) was > 100 µM (inactive), the GI50 (SK-MEL-28) was > 100 µM (inactive) and the GI50 (COLO 205) was > 100 µM (inactive). The GI50 (OVCAR-5) was > 100 µM (inactive), the GI50 (HT-29) was > 100 µM (inactive) and the GI50 (HOP-92) was > 100 µM (inactive). The GI50 (SF-539) was > 100 µM (inactive), the GI50 (NCI-H522) was > 100 µM (inactive) and the GI50 (HCT-15) was greater than 100 µM. The GI50 (SN12C) was > 100 µM (inactive), the GI50 (MOLT-4) was > 100 µM (inactive) and the GI50 (K562) was > 100 µM (inactive). For the same molecule, the GI50 (786-0) was > 100 µM (inactive), the GI50 (DLD-1) was > 100 µM (inactive) and the GI50 (DMS-114) was > 100 µM (inactive). For the same molecule, the GI50 (IGROV-1) was > 100 µM (inactive), the GI50 (SK-MEL-5) was > 100 µM (inactive) and the GI50 (TK-10) was > 100 µM (inactive). The GI50 (LOX IMVI) was > 100 µM (inactive), the GI50 (U-251) was > 100 µM (inactive) and the GI50 (HOP-18) was > 100 µM (inactive). The GI50 (A549) was > 100 µM (inactive), the GI50 (SR) was > 100 µM (inactive) and the GI50 (SF-295) was > 100 µM (inactive). The GI50 (HL-60) was > 100 µM (inactive), the GI50 (SW-620) was > 100 µM (inactive) and the GI50 (UO-31) was > 100 µM (inactive). The GI50 (RPMI-8226) was > 100 µM (inactive), the GI50 (Malme-3M) was > 100 µM (inactive) and the GI50 (SNB-78) was > 100 µM (inactive). The GI50 (DMS-273) was > 100 µM (inactive), the GI50 (M14) was > 100 µM (inactive) and the GI50 (UACC-257) was > 100 µM (inactive). The GI50 (M19-MEL) was > 100 µM (inactive), the GI50 (SF-268) was > 100 µM (inactive) and the GI50 (LXFL 529) was > 100 µM (inactive). The GI50 (CAKI-1) was > 100 µM (inactive), the GI50 (SK-OV-3) was > 100 µM (inactive) and the GI50 (ACHN) was > 100 µM (inactive). For the same molecule, the GI50 (RXF 393) was > 100 µM (inactive), the GI50 (OVCAR-4) was > 100 µM (inactive) and the GI50 (NCI-H226) was > 100 µM (inactive). The GI50 (UACC-62) was > 100 µM (inactive), the GI50 (HCT-116) was > 100 µM (inactive) and the GI50 (CCRF-CEM) was > 100 µM (inactive). The GI50 (HOP-62) was > 100 µM (inactive), the GI50 (NCI-H23) was > 100 µM (inactive) and the GI50 (NCI-H460) was > 100 µM (inactive).

`CCOP(=O)(O)C(Nc1ccc(/N=N/c2ccccc2)cc1)c1cccc(C(Nc2ccc(/N=N/c3ccccc3)cc2)P(=O)(O)OCC)c1` (stereo not given) was tested, and the GI50 (SNB-75) was 44.4 µM (inactive), the GI50 (SK-MEL-2) was 45.2 µM (inactive) and the GI50 (OVCAR-8) was 55 µM (inactive). For the same molecule, the GI50 (KM12) was 32.6 µM (inactive), the GI50 (SK-MEL-28) was 32.3 µM (inactive) and the GI50 (OVCAR-3) was 55.3 µM (inactive). The GI50 (COLO 205) was 21.6 µM (inactive), the GI50 (OVCAR-5) was 40.6 µM (inactive) and the GI50 (HT-29) was 20.1 µM (inactive). The GI50 (HOP-92) was 41.4 µM (inactive), the GI50 (SF-539) was 33.9 µM (inactive) and the GI50 (MCF7) was 35.2 µM (inactive). The GI50 (NCI-H522) was 20.8 µM (inactive), the GI50 (HCT-15) was 24.8 µM and the GI50 (SN12C) was 52 µM (inactive). The GI50 (MDA-N) was 60.5 µM (inactive), the GI50 (MOLT-4) was 16.7 µM (inactive) and the GI50 (NCI/ADR-RES) was 76.9 µM (inactive). For the same molecule, the GI50 (K562) was 19 µM (inactive), the GI50 (786-0) was 60 µM (inactive) and the GI50 (MDA-MB-231) was 58.6 µM (inactive). For the same molecule, the GI50 (IGROV-1) was 56.5 µM (inactive), the GI50 (SK-MEL-5) was 45.1 µM (inactive) and the GI50 (TK-10) was > 100 µM (inactive). For the same molecule, the GI50 (LOX IMVI) was 19.9 µM (inactive), the GI50 (U-251) was 31.2 µM (inactive) and the GI50 (A549) was 34.2 µM (inactive). The GI50 (SR) was 31.3 µM (inactive), the GI50 (SF-295) was 24 µM (inactive) and the GI50 (HL-60) was 22.1 µM (inactive). The GI50 (SW-620) was 35.2 µM (inactive), the GI50 (T47D) was 18.4 µM (inactive) and the GI50 (UO-31) was 30 µM (inactive). For the same molecule, the GI50 (RPMI-8226) was 23.2 µM (inactive), the GI50 (Malme-3M) was > 100 µM (inactive) and the GI50 (HCC 2998) was 25.2 µM (inactive). The GI50 (M14) was 40.6 µM (inactive), the GI50 (BT-549) was 45.2 µM (inactive) and the GI50 (MDA-MB-435) was 58.7 µM (inactive). The GI50 (PC-3) was 23.9 µM (inactive), the GI50 (UACC-257) was 57 µM (inactive) and the GI50 (DU-145) was 80.9 µM (inactive). The GI50 (SF-268) was 69.8 µM (inactive), the GI50 (A498) was 23 µM (inactive) and the GI50 (CAKI-1) was 66.1 µM (inactive). The GI50 (SK-OV-3) was 81.3 µM (inactive), the GI50 (ACHN) was 45.9 µM (inactive) and the GI50 (EKVX) was 57.4 µM (inactive). The GI50 (RXF 393) was 75.5 µM (inactive), the GI50 (OVCAR-4) was 47.2 µM (inactive) and the GI50 (NCI-H226) was > 100 µM (inactive). For the same molecule, the GI50 (UACC-62) was 29.4 µM (inactive), the GI50 (HCT-116) was 56.6 µM (inactive) and the GI50 (CCRF-CEM) was 15.5 µM (inactive). The GI50 (HOP-62) was 25.3 µM (inactive), the GI50 (NCI-H23) was 71.1 µM (inactive) and the GI50 (NCI-H460) was 33.3 µM (inactive). The GI50 (SNB-19) was 59.8 µM (inactive) and the GI50 (Hs-578T) was 38.7 µM (inactive).
